Measured values from ChEMBL document CHEMBL2413024, “Design and synthesis of pyrido[3,2-α]carbazole derivatives and their analogues as potent antitumour agents” (Eur J Med Chem, 2013).

Assays:
A549 [1] = experiment: Antitumor activity against human A549 cells after 72 hrs by sulforhodamine B assay; assay type: functional, cell-based; conditions: A549, 72 h
HT-29 [2] = experiment: Antitumor activity against human HT-29 cells after 72 hrs by sulforhodamine B assay; assay type: functional, cell-based; conditions: HT-29, 72 h
[3] = Aqueous solubility of the compound in pure water at 25 degC; assay type: physicochemical
HT-29 [4] = experiment: Ratio of R16 IC50 to compound IC50 for human HT-29 cells; assay type: functional
A549 [5] = experiment: Ratio of R16 IC50 to compound IC50 for human A549 cells; assay type: functional

IC50 (A549 [1]) [nM] | IC50 (HT-29 [2]) [nM] | solubility [3] [mg/mL] | SMILES | Ratio IC50 (HT-29 [4]) | Ratio IC50 (A549 [5])
870 | 1060 | – | Cn1c2ccccc2c2cc(C(=O)NCCCN3CCCC3)c3ncccc3c21 | – | –
710 | 1410 | – | Cn1c2ccccc2c2cc(C(=O)NCCCN3CCOCC3)c3ncccc3c21 | – | –
160 | 150 | – | CN(C)CCNC(=O)c1cc2c3cnccc3n(C)c2c2cccnc12 | – | –
170 | 160 | – | CN(C)CCNC(=O)c1cc2c3cc(F)ccc3n(C)c2c2cccnc12 | – | –
780 | 1250 | – | Cn1c2ccccc2c2cc(C(=O)NCCN3CCNCC3)c3ncccc3c21 | – | –
690 | 830 | – | CN(C)CCNC(=O)c1cc2c3ccccc3[nH]c2c2cccnc12 | – | –
220 | 200 | – | COc1ccc2c(c1)c1cc(C(=O)NCCN(C)C)c3ncccc3c1n2C | – | –
260 | 230 | – | CN(C)CCNC(=O)c1cc2c3cc(Cl)ccc3n(C)c2c2cccnc12 | – | –
770 | 1390 | – | CN(C)CCCNC(=O)c1cc2c3ccccc3[nH]c2c2cccnc12 | – | –
130 | 130 | – | CN(C)CCNC(=O)c1cc2c3ccncc3n(C)c2c2cccnc12 | – | –
560 | 850 | – | CN(C)CCCNC(=O)c1cc2c3ccccc3n(C)c2c2cccnc12 | – | –
600 | 1160 | – | CN(C)CCCNC(=O)c1cc2c3ccccc3sc2c2cccnc12 | – | –
– | – | 22.4 | CN(C)CCNC(=O)c1cc2c3cc(O)ccc3n(C)c2c2cccnc12.Cl | – | –
2110 | 2470 | – | Cn1c2ccccc2c2cc(C(=O)NCCN)c3ncccc3c21 | – | –
820 | 1300 | – | Cn1c2ccccc2c2cc(C(=O)NCCN3CCCCC3)c3ncccc3c21 | – | –
1370 | 1460 | – | CNCCNC(=O)c1cc2c3ccccc3n(C)c2c2cccnc12 | – | –
360 | 220 | – | CN(C)CCNC(=O)c1cc2c3ncccc3n(C)c2c2cccnc12 | – | –
890 | 1240 | – | CN1CCN(CCNC(=O)c2cc3c4ccccc4n(C)c3c3cccnc23)CC1 | – | –
1180 | 2240 | – | Cn1c2ccccc2c2cc(C(=O)NCCN3CCOCC3)c3ncccc3c21 | – | –
390 | 470 | – | CN(C)CCNC(=O)c1cc2c3ccccc3n(C)c2c2cccnc12 | – | –
200 | 1090 | – | CN(C)CCN1C(=O)c2cccc3c2c(cc2c4ccccc4sc32)C1=O | – | –
2230 | 2060 | – | CN(C)CCCNC(=O)c1cc2c3ccccc3oc2c2cccnc12 | – | –
160 | 180 | – | CN(C)CCNC(=O)c1cc2c3cccnc3n(C)c2c2cccnc12 | – | –
270 | 600 | – | CN(C)CCNC(=O)c1cc2c3ccccc3sc2c2cccnc12 | – | –
3060 | 4450 | – | Cn1c2ccccc2c2cc(C(=O)NCCO)c3ncccc3c21 | – | –
1890 | 2270 | – | CN(C)CCNC(=O)c1cc2c3ccccc3oc2c2cccnc12 | – | –
270 | 630 | – | Cn1c2ccccc2c2cc(C(=O)NCCN3CCCC3)c3ncccc3c21 | – | –
70 | 110 | – | CN(C)CCNC(=O)c1cc2c3cc(O)ccc3n(C)c2c2cccnc12 | 10 | 7
